Consider three molecules from patent US20230321085A1, “COMPOUND FOR USE IN THE TREATMENT OF DRY MOUTH” (ASAHI PHARMA CO., LTD., priority 2020, published 2023).

In series [1] the test system is healthy non-elderly and elderly male and female subjects. The series is described as follows: multiple ascending oral dose clinical study of the compound of the invention (second part). The format is in vivo, human. To be noted: multiple oral doses 10, 30, 100, 150 mg. The protocol:
The second part of the study investigated, multiple ascending oral doses in 4 cohorts (cohorts 2.1 to 2.4). Each cohort consisted of 12 healthy non-elderly male and female subjects, one optional cohort (cohort 2.5) consisting of 12 healthy nonelderly male and female subjects and one cohort (cohort 2.6) consisting of 12 healthy elderly male and female subjects who were randomized to receive the compound or matching placebo in a 3:1 ratio.
Actual dose levels were 10, 30, 100 and 150 mg of the compound (cohorts 2.1 to 2.4, respectively). The optional cohort 2.5 was not enrolled. The actual dose level for the elderly cohort (cohort 2.6) was 150 mg of the compound.
Sentinel dosing was employed for all cohorts. The first 2 subjects within a cohort (1 subject received the compound and 1 subject received matching placebo) were dosed at least 5 minutes apart. These 2 subjects were monitored for safety for 48 hours after receiving the first dose while dosing was continued. The remaining 10 subjects (8 with the compound and 2 with matching placebo) were divided into 2 sub-cohorts and were dosed at least 48 hours after the first 2 subjects with 48 hours between the 2 sub-cohorts.

Series [2] concerns healthy non-elderly male and female subjects. The series is described as follows: single ascending oral dose clinical study of the compound of the invention (first part). The class given is in vivo, human. To be noted: single oral dose 1, 3, 10, 30, 100, 150 mg. The protocol:
In the first part of a randomized, subject- and investigator-blinded, placebo-controlled, single ascending oral dose, parallel group study comprising of 7 cohorts (cohorts 1.1 to 1.7) the compound of the invention was administered at dose levels of 1, 3, 10, 30, 100, and 150 mg. Each cohort consisted of 8 healthy non-elderly male and female subjects who were randomized to receive the compound or matching placebo in a 3:1 ratio.
After a screening period of 21 days, eligible subjects who had signed an informed consent form (ICF) to participate in the study were residential for a single treatment period of 5 days/4 nights. Subjects were admitted to the clinical unit on day −1. After randomization on day 1, subjects received a single oral dose of the compound or matching placebo under fasting. Each cohort was completed with an end-of-study visit, which took place 5 to 9 days after the last pharmacokinetic sample had been collected (or early discontinuation from the study).

Series [3] concerns awake rats. As to the kind of experiment: effect on salivation in awake rats (oral administration). The format is in vivo, rat. The settings on record: for duration of effect on salivation: oral administration to awake rats. The procedure: Pilocarpine therefore alleviates the dry mouth symptoms, but it leads to hyperhidrosis as a further side effect. Moreover, experiments in rats have shown that the effect of pilocarpine on salivation is only short-lived and that initial salivation levels are approached after about 60 minutes (FIG. 1).
Moreover, experiments have shown that its effect on salivation is long-lasting (FIG. 2 as well as FIGS. 3, 4 and 5).

Series [4] can be described thus: clinical study with a reference M3 PAM (similar to first study in Example 2). The class given is in vivo, human. The settings on record: dose levels of 1, 3, 10, 30 and 90 mg, FIG. 6. The protocol:
In a study similar to the first study in Example 2, a known M3 positive allosteric modulator reference compound (example 8 of EP 2 963 036) with the following structure
was administered in dose levels of 1, 3, 10, 30 and 90 mg.

Series [5] deals with healthy subjects. As to the kind of experiment: Phase 1 study of the effect of pilocarpine on salivary secretion in healthy subjects. The format is in vivo, human. The settings on record: for participants reporting hyperhidrosis as side effect: periods 1 to 4. The procedure:
A Phase 1 study to investigate the effect of pilocarpine on salivary secretion was conducted in 12 healthy subjects. The study was conducted as a randomized, subject- and investigator-blinded, placebo-controlled, oral dose clinical study using a 5-way balanced extra period design. Pilocarpine capsules containing 2.5 mg were administered orally (1 capsule for a 2.5 mg dose, 2 capsules for a dose of 5.0 mg pilocarpine and 4 capsules for a dose of 10 mg pilocarpine). Subjects were admitted to the clinical unit on day 1 and were residential for a period of 6 days and 5 nights. Subjects were randomized to 1 of 4 treatment sequences on day 1 prior to study drug administration. Each study period was approximately 1 day and subjects received the different oral doses of the study drug (pilocarpine or placebo to match) in periods 1 through 5. There was a 4-hour saliva collection period following every dose and a washout period of at least 24 hours between doses. To assess the pharmacodynamic effect of pilocarpine on saliva secretion, saliva samples were collected over 5-minute intervals from pre-dose until 4 hours post-dose at the timepoints 0.5, 0.75, 1.0, 1.5, 2.0, 3.0 and 4.0 h.

Bounds are passed on as bounds.

Regarding `C[C@@H]1CCCN1Cc1sc(NC(=O)c2cnc(N3CCN(CCC(=O)O)[C@@H](C)C3)cn2)nc1-c1cc(Cl)cs1` [compound of the invention], the “hyperhidrosis as a side effect” value in series [1] and in series [2] was “not reported” throughout. Also, the salivary secretion rates entry in series [1] (FIG. 5) and in series [2] (FIG. 4) was “increased salivary secretion rates” throughout. Moreover, in series [3], the “duration of effect on salivation” value is no less than 8 h.

Consider `CC[C@@H]1CCCN1Cc1sc(NC(=O)c2cnc(N3CCC(C(=O)O)CC3)cn2)nc1-c1ccc(OC)c(C(F)(F)F)c1` [example 8 of EP 2 963 036], for which, in series [4], the impact on salivation result is listed as “do not significantly impact salivation”.

For the molecule `CC[C@@H]1C(=O)OC[C@@H]1Cc1cncn1C` [pilocarpine], the “duration of effect on salivation” value in series [3] is no more than 1 h. The “time after which initial salivation levels are approached” value in series [3] (rats, FIG. 1) was “about 60 minutes”. For the same molecule, the sweating result in series [5] (clinically relevant doses (5 mg and 10 mg qd)) is on record as “a significant number of the patients suffered from sweating”. Besides, in series [5] (human trials, 2.5, 5 and 10 mg pilocarpine), the effect on salivation result is given as “increased salivation”. Moreover, the “participants reporting hyperhidrosis as side effect” value in series [5] (pilocarpine dose of 5 mg) stood at 8.3%; in series [5] (pilocarpine dose of 10 mg) it was 50%.
